Activity calls are given as the source filed them.
Assays:
[1] = Vero E6 cell cytotoxicity, dose response, cytotoxicity control for non-replicating M. tuberculosis project, secondary assay (AID 492998); type: functional, VeroE6; details: Vero C1008
[2] = THP-1 cell cytotoxicity, dose response, cytotoxicity control for non-replicating M. tuberculosis project (AID 489025); type: functional
[3] = Luminescence Cell-Based Dose Response HTS to Identify Inhibitors of 5'UTR Stem-Loop Driven Prion Protein mRNA Translation in H4 Neuroglioblastoma Cells. [Related pubchem assays: 1827 (Project Summary), 1813 (Primary HTS)]; type: functional
cells = type: functional
[4] = test system: Streptococcus sp. 'group A'; assay: growth inhibition of control SK(-) GAS strain, dose response, counter-screen for streptokinase expression inhibitor project, luminescence, kanamycin, BacTiterGlo, confirmation (AID 1900); type: functional, organism-based
[5] = HepG2 cell cytotoxicity, dose response, cytotoxicity control for non-replicating M. tuberculosis project (AID 489018); type: functional; details: Mycobacterium tuberculosis
Streptococcus = assay: Group A Streptococcus viability loss, dose response, counter-screen for streptokinase expression inhibitor project, luminescence, BacTiterGlo (AID 1915); type: functional, organism-based;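 further: potency for reduction of bacterial viability or growth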
[6] = inhibitors of SNCA 5'UTR-driven reporter translation, confirmation, H4 neuroglioma cells, luminescence (AID 1988); type: functional, cell-based
[7] = inhibitors of firefly luciferase expression or activity, dose response, H4 neuroglioma cells, luminescence (AID 1990); type: functional, cell-based
[8] = biological target: Heat shock protein HSP 90-alpha (Homo sapiens, UniProt P07900); type: functional, organism-based
Streptokinase A = biological target: T1, Streptokinase A (Streptococcus pyogenes serotype M1, UniProt P10520); assay: S. pyogenes streptokinase expression inhibitors, potency, dose response, plasminogen activation absorbance, OD405 (AID 1914); type: functional, Streptococcus pyogenes M1 GAS;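 further: secreted streptokinase activity via plasminogen activation per viability signal from cell pellet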
T1 sequence (P10520 whole entry): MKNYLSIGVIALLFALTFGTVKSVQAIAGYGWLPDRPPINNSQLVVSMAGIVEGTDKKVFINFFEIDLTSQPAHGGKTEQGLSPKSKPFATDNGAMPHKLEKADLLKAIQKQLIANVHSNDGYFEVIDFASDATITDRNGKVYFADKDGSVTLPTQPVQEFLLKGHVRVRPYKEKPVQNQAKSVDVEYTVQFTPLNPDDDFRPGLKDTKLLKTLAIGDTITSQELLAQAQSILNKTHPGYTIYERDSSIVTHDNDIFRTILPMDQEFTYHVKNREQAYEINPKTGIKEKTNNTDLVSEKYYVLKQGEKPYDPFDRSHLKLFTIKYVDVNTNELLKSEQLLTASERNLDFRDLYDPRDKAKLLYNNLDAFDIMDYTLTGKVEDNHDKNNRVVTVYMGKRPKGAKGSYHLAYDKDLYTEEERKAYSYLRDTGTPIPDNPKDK

H9c2 = assay: cells; type: functional, cell-based; details: Rattus norvegicus, H9c2, Myocardium;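 further: confirmatory concentration-response retest of ultra-high-throughput screening hits for modulation of myocardial damage; cell death induced by hydrogen peroxide oxidative stress; compound pretreatment for 60 min then peroxide exposure for 2 h; potency is for protecting the cells against peroxide damage rather than for killing them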
[9] = biological target: Polyadenylate-binding protein 1 (Homo sapiens, UniProt P11940); assay: PABP inhibition in translation initiation, SAR follow-up (AID 435018); type: functional
[10] = biological target: Eukaryotic translation initiation factor 4H (Homo sapiens, UniProt Q15056); assay: eIF4H inhibition in translation initiation, SAR follow-up (AID 435011); type: functional
ORF 73 = biological target: T2, ORF 73 (Human herpesvirus 8, UniProt O40947); assay: inhibitors of C-LANA binding to LBS DNA, dose response, biochemical, fluorescence polarization, cherry-picked samples (AID 504725); set-up: species or system Human gammaherpesvirus 8;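 further: fluorescence polarization of a labeled DNA duplex reporting LANA DNA binding; potency is for inhibitors that block LANA binding to the DNA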
T2 sequence (O40947 whole entry): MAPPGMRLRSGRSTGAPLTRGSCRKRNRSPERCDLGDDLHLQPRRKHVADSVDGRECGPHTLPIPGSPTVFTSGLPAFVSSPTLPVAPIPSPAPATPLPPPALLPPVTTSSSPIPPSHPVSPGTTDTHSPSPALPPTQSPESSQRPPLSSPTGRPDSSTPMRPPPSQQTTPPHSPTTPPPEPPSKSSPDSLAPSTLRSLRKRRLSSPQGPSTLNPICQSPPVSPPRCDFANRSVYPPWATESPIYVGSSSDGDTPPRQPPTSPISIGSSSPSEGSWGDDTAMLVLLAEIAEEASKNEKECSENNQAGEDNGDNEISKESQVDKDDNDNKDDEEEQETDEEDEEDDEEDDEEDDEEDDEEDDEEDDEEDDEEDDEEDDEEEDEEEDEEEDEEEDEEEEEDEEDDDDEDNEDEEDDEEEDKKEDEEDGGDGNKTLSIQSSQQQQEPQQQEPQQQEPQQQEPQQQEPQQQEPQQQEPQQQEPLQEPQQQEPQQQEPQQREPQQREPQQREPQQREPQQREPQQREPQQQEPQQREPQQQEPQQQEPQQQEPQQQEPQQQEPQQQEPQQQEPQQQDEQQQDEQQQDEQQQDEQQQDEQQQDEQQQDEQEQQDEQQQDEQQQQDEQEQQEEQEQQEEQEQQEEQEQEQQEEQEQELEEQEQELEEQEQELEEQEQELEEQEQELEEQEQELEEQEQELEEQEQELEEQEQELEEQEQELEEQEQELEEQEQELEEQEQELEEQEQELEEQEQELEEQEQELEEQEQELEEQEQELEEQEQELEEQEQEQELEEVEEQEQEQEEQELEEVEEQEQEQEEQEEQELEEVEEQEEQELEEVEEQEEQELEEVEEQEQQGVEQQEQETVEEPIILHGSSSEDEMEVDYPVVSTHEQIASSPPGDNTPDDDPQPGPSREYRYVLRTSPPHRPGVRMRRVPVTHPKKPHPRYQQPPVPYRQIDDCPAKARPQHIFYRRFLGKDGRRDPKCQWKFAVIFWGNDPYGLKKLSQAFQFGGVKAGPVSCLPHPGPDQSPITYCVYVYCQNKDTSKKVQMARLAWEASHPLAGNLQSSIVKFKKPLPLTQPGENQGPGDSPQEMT

Genome polyprotein = Genome polyprotein (dengue virus type 2, UniProt P29990); assay: Dengue-2 NS5 methyltransferase inhibitors, primary screen, biochemical, confirmation dose response (AID 588689); type: functional
[11] = biological target: T3, Zinc finger protein mex-5 (Caenorhabditis elegans, UniProt Q9XUB2); assay: MEX-5/TCR-2 RNA interaction inhibitors, dose response, biochemical, C. elegans, fluorescence polarization (AID 1960)
T3 sequence (Q9XUB2 whole entry): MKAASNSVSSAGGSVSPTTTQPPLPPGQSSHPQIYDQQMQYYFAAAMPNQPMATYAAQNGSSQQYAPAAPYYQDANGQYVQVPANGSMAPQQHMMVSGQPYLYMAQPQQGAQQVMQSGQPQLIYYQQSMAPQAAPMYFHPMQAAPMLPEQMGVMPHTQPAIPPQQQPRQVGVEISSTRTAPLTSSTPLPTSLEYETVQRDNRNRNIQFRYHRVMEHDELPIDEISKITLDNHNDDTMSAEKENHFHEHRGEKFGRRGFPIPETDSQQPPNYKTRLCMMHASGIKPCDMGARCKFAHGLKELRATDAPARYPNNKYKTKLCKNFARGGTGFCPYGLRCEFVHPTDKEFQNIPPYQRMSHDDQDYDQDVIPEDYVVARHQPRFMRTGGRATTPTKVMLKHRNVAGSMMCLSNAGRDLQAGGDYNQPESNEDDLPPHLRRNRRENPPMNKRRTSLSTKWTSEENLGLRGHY

[12] = biological target: T4, Rac GTPase-activating protein 1 (Homo sapiens, UniProt Q9H0H5); assay: MgcRacGAP GTPase-activating activity inhibitors, confirmation, biochemical, ADP Hunter fluorescence, primary and confirmatory (AID 624330); type: functional
T4 sequence (Q9H0H5 whole entry): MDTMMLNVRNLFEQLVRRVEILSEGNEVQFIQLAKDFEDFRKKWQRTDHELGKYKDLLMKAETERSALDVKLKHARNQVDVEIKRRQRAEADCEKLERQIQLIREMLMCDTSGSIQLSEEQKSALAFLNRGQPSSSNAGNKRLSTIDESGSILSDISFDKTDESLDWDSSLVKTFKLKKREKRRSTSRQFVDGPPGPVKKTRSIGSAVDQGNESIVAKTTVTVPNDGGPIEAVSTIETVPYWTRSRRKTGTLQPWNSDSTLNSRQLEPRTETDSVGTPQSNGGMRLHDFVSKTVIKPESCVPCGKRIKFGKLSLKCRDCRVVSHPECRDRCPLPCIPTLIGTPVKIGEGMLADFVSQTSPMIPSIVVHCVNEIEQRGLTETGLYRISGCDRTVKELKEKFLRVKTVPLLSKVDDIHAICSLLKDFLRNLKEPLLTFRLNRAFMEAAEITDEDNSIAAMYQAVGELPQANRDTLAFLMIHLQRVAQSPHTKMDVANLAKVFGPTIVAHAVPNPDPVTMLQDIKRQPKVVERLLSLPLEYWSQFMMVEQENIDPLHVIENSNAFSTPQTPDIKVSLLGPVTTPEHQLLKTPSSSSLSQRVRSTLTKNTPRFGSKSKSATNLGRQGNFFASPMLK

[13] = biological target: T5, RNA-binding protein pos-1 (Caenorhabditis elegans, UniProt G5EF15); assay: inhibitors of POS-1/mex-3 RNA binding, dose response, biochemical, fluorescence polarization (AID 1964);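 further: purified POS-1 fused to maltose binding protein made in E. coli; potency of compounds blocking POS-1 binding to fluorescent RNA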
T5 sequence (G5EF15 whole entry): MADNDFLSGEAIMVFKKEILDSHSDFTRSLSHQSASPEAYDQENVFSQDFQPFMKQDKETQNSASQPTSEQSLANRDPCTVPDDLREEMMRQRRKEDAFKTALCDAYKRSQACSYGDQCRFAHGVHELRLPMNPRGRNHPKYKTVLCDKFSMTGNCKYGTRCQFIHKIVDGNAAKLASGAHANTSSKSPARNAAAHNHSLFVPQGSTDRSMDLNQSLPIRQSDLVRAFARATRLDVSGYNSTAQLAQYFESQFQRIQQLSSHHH

Hexokinase = biological target: T6, Hexokinase (Trypanosoma brucei, UniProt Q38C41); assay: Confirmation assay for inhibitors of Trypanosoma brucei hexokinase 1-Analogue-first series. [Related pubchem assays (depositor defined):AID1430, AID1632, AID2516, AID2560, AID2579, AID2600, AID449725, AID492951]; type: functional
T6 sequence (Q38C41 whole entry): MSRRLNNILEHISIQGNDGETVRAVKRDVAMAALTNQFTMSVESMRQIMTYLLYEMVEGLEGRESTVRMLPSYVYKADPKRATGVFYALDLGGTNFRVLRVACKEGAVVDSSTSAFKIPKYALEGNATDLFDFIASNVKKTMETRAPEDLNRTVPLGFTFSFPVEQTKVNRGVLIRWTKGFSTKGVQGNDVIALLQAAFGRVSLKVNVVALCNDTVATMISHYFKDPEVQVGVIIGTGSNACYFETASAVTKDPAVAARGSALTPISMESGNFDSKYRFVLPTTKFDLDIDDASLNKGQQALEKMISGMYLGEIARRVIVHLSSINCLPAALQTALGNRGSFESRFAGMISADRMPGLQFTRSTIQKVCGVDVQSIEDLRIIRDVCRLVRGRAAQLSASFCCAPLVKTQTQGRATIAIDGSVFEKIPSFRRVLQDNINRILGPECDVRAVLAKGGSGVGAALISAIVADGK

[14] = biological target: T7, Microphthalmia-associated transcription factor (Homo sapiens, UniProt O75030); assay: TRPM1 promoter luciferase signal decrease, dose response, MITF inhibitor project, cell-based, SK-MEL-5, cherry-picked, set 3 (AID 493073); type: functional
T7 sequence (O75030 whole entry): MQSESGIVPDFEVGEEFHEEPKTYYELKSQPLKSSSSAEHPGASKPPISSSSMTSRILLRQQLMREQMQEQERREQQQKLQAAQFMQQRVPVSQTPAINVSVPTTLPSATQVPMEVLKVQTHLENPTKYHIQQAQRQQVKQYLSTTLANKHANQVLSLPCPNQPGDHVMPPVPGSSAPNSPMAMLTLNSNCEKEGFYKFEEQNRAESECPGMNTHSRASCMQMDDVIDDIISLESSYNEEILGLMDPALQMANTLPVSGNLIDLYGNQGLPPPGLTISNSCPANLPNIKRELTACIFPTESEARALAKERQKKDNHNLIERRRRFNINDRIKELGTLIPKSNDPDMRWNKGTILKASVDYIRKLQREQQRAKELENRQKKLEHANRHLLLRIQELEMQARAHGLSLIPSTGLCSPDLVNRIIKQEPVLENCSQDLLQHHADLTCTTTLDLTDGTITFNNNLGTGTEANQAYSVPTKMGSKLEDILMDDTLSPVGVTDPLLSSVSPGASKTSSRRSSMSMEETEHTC

Beta-galactosidase = Beta-galactosidase (Escherichia coli, UniProt Q8VNN2); type: functional
[15] = biological target: T8, Kappa-type opioid receptor (Homo sapiens, UniProt P41145); type: functional
[16] = biological target: T8, Kappa-type opioid receptor; type: functional; remark: listed apart in the source

Chain of Polyadenylate-binding protein 1 (P11940 whole entry): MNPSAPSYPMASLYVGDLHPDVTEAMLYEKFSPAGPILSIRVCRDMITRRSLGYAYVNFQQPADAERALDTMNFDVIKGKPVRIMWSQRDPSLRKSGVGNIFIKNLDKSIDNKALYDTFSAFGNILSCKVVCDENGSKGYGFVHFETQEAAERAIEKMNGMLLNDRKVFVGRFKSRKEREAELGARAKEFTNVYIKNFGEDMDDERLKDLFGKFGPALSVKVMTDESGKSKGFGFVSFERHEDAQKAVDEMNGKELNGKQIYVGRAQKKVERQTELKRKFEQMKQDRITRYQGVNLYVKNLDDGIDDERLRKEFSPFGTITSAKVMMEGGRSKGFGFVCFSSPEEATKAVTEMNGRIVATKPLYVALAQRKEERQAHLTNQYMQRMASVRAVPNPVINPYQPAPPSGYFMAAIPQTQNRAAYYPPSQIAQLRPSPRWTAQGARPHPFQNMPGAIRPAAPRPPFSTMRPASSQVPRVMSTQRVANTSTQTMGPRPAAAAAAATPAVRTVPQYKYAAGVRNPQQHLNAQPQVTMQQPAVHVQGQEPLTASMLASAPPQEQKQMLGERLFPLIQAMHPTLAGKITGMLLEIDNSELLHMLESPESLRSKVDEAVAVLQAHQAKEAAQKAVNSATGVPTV
T8 sequence (P41145 whole entry): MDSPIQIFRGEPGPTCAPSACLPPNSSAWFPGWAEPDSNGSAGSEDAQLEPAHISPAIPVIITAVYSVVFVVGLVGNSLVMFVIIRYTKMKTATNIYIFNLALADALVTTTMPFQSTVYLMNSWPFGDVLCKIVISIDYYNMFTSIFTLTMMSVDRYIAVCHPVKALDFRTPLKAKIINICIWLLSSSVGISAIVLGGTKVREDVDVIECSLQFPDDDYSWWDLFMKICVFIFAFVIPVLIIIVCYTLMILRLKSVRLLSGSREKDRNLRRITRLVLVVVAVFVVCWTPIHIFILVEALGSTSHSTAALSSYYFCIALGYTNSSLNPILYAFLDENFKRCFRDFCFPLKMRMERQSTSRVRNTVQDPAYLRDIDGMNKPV
Chain of Beta-galactosidase (Q8VNN2 whole entry): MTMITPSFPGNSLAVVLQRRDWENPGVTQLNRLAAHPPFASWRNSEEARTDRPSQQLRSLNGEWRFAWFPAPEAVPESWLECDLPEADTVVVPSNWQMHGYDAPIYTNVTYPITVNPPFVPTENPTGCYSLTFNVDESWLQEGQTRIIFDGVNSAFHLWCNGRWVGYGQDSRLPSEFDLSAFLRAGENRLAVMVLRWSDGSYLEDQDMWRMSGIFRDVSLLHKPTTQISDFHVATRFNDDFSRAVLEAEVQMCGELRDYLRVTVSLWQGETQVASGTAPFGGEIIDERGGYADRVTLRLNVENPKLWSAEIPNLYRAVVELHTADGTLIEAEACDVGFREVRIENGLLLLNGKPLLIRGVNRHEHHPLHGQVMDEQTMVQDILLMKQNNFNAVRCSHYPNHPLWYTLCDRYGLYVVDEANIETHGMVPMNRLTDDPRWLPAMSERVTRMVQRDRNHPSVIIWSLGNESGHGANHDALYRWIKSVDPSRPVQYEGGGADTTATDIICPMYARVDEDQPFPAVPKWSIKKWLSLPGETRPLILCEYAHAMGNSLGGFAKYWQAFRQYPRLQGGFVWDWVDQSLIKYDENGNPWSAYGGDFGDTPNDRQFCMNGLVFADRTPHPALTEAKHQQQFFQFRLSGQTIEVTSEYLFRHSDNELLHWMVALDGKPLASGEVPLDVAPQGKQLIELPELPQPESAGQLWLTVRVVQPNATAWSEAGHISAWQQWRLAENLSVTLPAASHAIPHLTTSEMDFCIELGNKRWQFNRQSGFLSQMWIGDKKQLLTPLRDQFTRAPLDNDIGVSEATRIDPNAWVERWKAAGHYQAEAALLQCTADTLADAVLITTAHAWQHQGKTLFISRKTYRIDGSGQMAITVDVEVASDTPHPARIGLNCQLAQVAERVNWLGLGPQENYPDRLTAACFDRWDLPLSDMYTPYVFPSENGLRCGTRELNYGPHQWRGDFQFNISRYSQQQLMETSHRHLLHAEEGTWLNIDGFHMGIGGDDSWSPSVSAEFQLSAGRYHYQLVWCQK
Chain of Genome polyprotein (P29990 2492-3391 limits assumed): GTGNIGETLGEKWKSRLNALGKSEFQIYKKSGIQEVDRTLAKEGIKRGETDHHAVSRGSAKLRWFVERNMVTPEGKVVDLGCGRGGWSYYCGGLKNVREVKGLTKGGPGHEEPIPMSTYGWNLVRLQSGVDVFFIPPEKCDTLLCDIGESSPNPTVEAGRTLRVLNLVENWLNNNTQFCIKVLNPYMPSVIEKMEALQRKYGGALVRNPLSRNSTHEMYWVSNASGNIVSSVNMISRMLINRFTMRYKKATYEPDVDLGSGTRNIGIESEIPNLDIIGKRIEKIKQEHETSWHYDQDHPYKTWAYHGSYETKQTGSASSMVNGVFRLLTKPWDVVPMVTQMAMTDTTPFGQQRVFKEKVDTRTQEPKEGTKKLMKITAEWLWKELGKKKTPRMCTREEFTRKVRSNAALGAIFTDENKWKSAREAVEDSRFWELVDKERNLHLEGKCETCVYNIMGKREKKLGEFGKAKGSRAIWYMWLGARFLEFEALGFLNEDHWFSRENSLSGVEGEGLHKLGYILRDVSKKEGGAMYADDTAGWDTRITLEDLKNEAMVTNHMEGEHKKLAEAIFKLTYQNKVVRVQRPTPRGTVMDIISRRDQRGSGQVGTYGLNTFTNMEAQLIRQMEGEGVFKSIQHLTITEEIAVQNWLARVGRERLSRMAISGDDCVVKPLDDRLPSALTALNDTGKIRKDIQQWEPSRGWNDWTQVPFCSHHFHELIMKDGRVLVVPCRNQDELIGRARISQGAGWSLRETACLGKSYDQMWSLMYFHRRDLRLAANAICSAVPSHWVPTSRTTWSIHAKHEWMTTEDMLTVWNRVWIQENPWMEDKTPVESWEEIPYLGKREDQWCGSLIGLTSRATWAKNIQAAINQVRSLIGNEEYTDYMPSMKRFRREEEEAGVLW

CC(C)Cn1c(=O)c(C(=O)Nc2ccncc2)c(O)c2ccccc21
CC50 [1]: 16.5 µM (active) | CC50 [2]: 12.4 µM (active) | EC50 [3]: > 120 µM (not active) | IC50 (cells): 16.9 µM (active) | EC50 [4]: 5.54 µM (active) | CC50 [5]: 19.1 µM (active) | EC50 (Streptococcus): 7.31 µM (active) | EC50 [6]: 10.9 µM (active) | EC50 [7]: > 120 µM (not active) | AC50 [8]: 6.7 µM (active)

O=C(Nc1nnc(-c2ccco2)o1)c1ccc([N+](=O)[O-])s1
CC50 [1]: 11.6 µM (active) | CC50 [2]: 17.4 µM (active) | IC50 (cells): 9.81 µM (active) | CC50 [5]: > 20 µM (active)

CCCn1c(NC(=O)c2ccccc2)nc2ccccc21
CC50 [1]: > 20 µM (active) | CC50 [2]: 35.9 µM (active) | IC50 (cells): 1.75 µM (active) | EC50 [4]: 2.56 µM (active) | EC50 (Streptokinase A): > 150 µM (not active) | CC50 [5]: > 20 µM (active) | EC50 (Streptococcus): > 150 µM (not active) | IC50 (H9c2): > 79 µM (inactive)

O=C(COc1ccc(C=NNC(=O)c2ccc(O)cc2)cc1)Nc1ccc([N+](=O)[O-])cc1
IC50 [9]: > 100 µM (inactive) | IC50 [10]: 5.8 µM (active)

O=C(O)c1ccc2c(c1)C(=O)/C(=C\c1ccco1)C2=O
AC50 (ORF 73): 133 µM (active) | IC50 (Genome polyprotein): 12.3 µM (active) | EC50 [11]: 32.1 µM (active) | IC50 [12]: 89.2 µM (active) | EC50 [13]: > 300 µM (not active)

COc1cccc(NC(=O)Cn2sc3ccccc3c2=O)c1
IC50 (Hexokinase): 5.03 µM (active)

O=C(Nc1cc(Cl)ccc1C(=O)O)c1ccc(Cl)cc1
IC50 (Hexokinase): > 25 µM (inactive)

COc1ccc(Cl)cc1NC(=O)COC(=O)c1ccc(NC(N)=O)cc1
IC50 [9]: > 100 µM (inactive) | IC50 [10]: > 100 µM (inactive)

CC1=C/C(=N\NC(=S)Nc2cccnc2)CC(C)(C)C1
AC50 [14]: 11 µM (active) | EC50 (Beta-galactosidase): > 31.5 µM (inactive) | IC50 [15]: 9.46 µM (active) | IC50 [16]: > 32 µM

— ChEMBL document CHEMBL1201862, “PubChem BioAssay data set” (2004)
